Assay results reported in patent US11629171B2, “Beta-hairpin peptidomimetics” (POLYPHOR AG, priority 2017, dated 2023).
In brackets after ≈: the same amount, converted by molar mass. Where a SMILES comes first, the peptide text is derived from it. Bridges are numbered along the chain shown (N, C = ends). Roman numbers before positions name the chains, in order. [ ]: non-standard residue; d: D form. The star is where a group is joined. Tle = CC(C)(C)[C@H](N)C(=O)O; Hiv = CC(C)[C@H](O)C(=O)O; dDab = NCC[C@@H](N)C(=O)O; hSer = N[C@@H](CCO)C(=O)O; NHCH(CH2OH)2 = OCC(CO)N*; Orn = NCCC[C@H](N)C(=O)O; Dab = NCC[C@H](N)C(=O)O; Dap = NC[C@H](N)C(=O)O

Assays:
Type in all cases: cell-based
[1] = test system: human red blood cells (hRBC); assay: Hemolysis; settings: red cells of human, 1 h, 200
In short: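 Washed fresh hRBC (20% v/v) were incubated with peptides at 200 μg/mL for 1 h at 37° C with shaking at 300 rpm. Supernatant OD540 was read after centrifugation and dilution, blank-corrected, and expressed as percent of the 2% Triton X-100 (100% lysis) control; PBS with 10% water gave 0%.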

[2] = test system: Klebsiella pneumoniae 968733; settings: 968733
In short: (§1)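 CLSI broth microdilution in cation-adjusted Mueller-Hinton II broth with 0.002% polysorbate 80 (final), inoculum appr. 10^6 CFU/mL, peptides in serial two-fold dilutions. MIC (μg/mL) is the lowest concentration without visible growth after 18-20 h at 35° C.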

[3] = test system: Escherichia coli ATCC 25922; settings: ATCC 25922
In short: as §1

[4] = test system: Acinetobacter baumannii DSM 30008; settings: DSM 30008
In short: as §1

[5] = test system: Acinetobacter baumannii 872842; settings: 872842
In short: as §1

[6] = test system: Enterobacter cloacae 848840; settings: 848840
In short: as §1

[7] = test system: Klebsiella pneumoniae SSI #3010; settings: SSI #3010
In short: as §1

[8] = test system: Pseudomonas aeruginosa ATCC 27853; settings: ATCC 27853
In short: as §1

[9] = test system: Escherichia coli 926415; settings: 926415
In short: as §1

Structure (SMILES) | Hemolysis at 200 μg/mL [1] | MIC [2] | Escherichia coli ATCC 25922 MIC [3] | Acinetobacter baumannii DSM 30008 MIC [4] | MIC [5] | MIC [6] | Klebsiella pneumoniae SSI #3010 MIC [7] | Pseudomonas aeruginosa ATCC 27853 MIC [8] | MIC [9] | MIC [3] | MIC [4] | MIC [7] | MIC [8]
CC(C)C[C@@H]1NC(=O)[C@@H](CC(C)C)NC(=O)[C@H](CCN)NC(=O)[C@@H](NC(=O)[C@H](CN)NC(=O)[C@@H](NC(=O)[C@H](CCN)NC(=O)CC[C@@H]2NC(=O)[C@H](CCN)NC(=O)[C@H](Cc3ccc(O)cc3)NC(=O)[C@@H](NC(=O)[C@@H](O)C(C)C)CCN(C)C(=O)C[C@@H](C(=O)N[C@@H](CO)C(N)=O)NC(=O)[C@H](C(C)C)NC(=O)[C@H](CO)NC(=O)[C@H](Cc3c[nH]c4ccccc34)NC(=O)[C@H](CO)NC(=O)[C@@H](CCN)NC2=O)[C@@H](C)O)CCNC(=O)[C@H]([C@@H](C)O)NC(=O)[C@H](CCN)NC(=O)[C@H](CCN)NC1=O [Ex. 304] | <1% | 4 µg/mL (≈ 1.69 µM) | 0.125 µg/mL | 0.25 µg/mL | 1 µg/mL (≈ 0.423 µM) | 2 µg/mL (≈ 0.846 µM) | 0.0625 µg/mL | 0.25 µg/mL | 2 µg/mL (≈ 0.846 µM) | – | – | – | –
CC(=O)N[C@H](C(=O)N[C@H]1CSSC[C@@H](C(=O)N[C@@H](CO)C(N)=O)NC(=O)[C@H](C(C)(C)C)NC(=O)[C@H](CCO)NC(=O)[C@H](Cc2c[nH]c3ccccc23)NC(=O)[C@H](CCO)NC(=O)[C@@H](CCN)NC(=O)[C@H](CCC(=O)N[C@@H](CCN)C(=O)N[C@H](C(=O)N[C@@H](CCN)C(=O)N[C@H]2CCNC(=O)[C@H]([C@@H](C)O)NC(=O)[C@H](CCN)NC(=O)[C@H](CCN)NC(=O)[C@H](CC(C)C)NC(=O)[C@@H](CC(C)C)NC(=O)[C@H](CCN)NC2=O)[C@@H](C)O)NC(=O)[C@H](CCN)NC(=O)[C@H](Cc2ccc(O)cc2)NC1=O)C(C)C [Ex. 49] (I: Ac-VCY[Dab]E[dDab][hSer]W[hSer][Tle]CS-NH2 / II: [Dab]T[Dab][Dab][Dab][dL]L[Dab][Dab]T; disulfide I:2-I:11; amide I:5-II:N; lactam II:4-II:C) | <1% | 0.125 µg/mL (≈ 0.0509 µM) | – | – | 0.25 µg/mL (≈ 0.102 µM) | 0.25 µg/mL (≈ 0.102 µM) | – | – | 0.25 µg/mL (≈ 0.102 µM) | 0.125 µg/mL (≈ 0.0509 µM) | 0.0625 µg/mL (≈ 0.0255 µM) | 0.125 µg/mL (≈ 0.0509 µM) | 0.125 µg/mL (≈ 0.0509 µM)
CC(=O)N[C@H](C(=O)N[C@H]1CCNC(=O)CC[C@@H](C(=O)N[C@@H](CO)C(N)=O)NC(=O)[C@H](C(C)C)NC(=O)[C@H](CO)NC(=O)[C@H](Cc2c[nH]c3ccccc23)NC(=O)[C@H](CO)NC(=O)[C@@H](CCN)NC(=O)[C@H](CCC(=O)N[C@@H](CCN)C(=O)N[C@H](C(=O)N[C@@H](CN)C(=O)N[C@H]2CCNC(=O)[C@H]([C@@H](C)O)NC(=O)[C@H](CCN)NC(=O)[C@H](CCN)NC(=O)[C@H](CC(C)C)NC(=O)[C@@H](CC(C)C)NC(=O)[C@H](CCN)NC2=O)[C@@H](C)O)NC(=O)[C@H](CN)NC(=O)[C@H](Cc2ccc(O)cc2)NC1=O)C(C)C [Ex. 147] (I: Ac-V[Dab]Y[Dap]E[dDab]SWSVES-NH2 / II: [Dab]T[Dap][Dab][Dab][dL]L[Dab][Dab]T; lactam I:2-I:11, II:4-II:C; amide I:5-II:N) | <1% | 0.5 µg/mL (≈ 0.209 µM) | – | – | 0.25 µg/mL (≈ 0.105 µM) | 0.125 µg/mL (≈ 0.0523 µM) | – | – | 0.25 µg/mL (≈ 0.105 µM) | 0.0625 µg/mL (≈ 0.0261 µM) | 0.0625 µg/mL (≈ 0.0261 µM) | 0.0625 µg/mL (≈ 0.0261 µM) | 0.125 µg/mL (≈ 0.0523 µM)
CC(=O)N[C@H](C(=O)N[C@H]1CCNC(=O)CC[C@@H](C(=O)N[C@@H](CO)C(N)=O)NC(=O)[C@H](CC(C)C)NC(=O)[C@H](CO)NC(=O)[C@H](Cc2c[nH]c3ccccc23)NC(=O)[C@H](CO)NC(=O)[C@@H](CCN)NC(=O)[C@H](CCC(=O)N[C@@H](CCN)C(=O)N[C@H](C(=O)N[C@@H](CN)C(=O)N[C@H]2CCNC(=O)[C@H]([C@@H](C)O)NC(=O)[C@H](CCN)NC(=O)[C@H](CCN)NC(=O)[C@H](CC(C)C)NC(=O)[C@@H](CC(C)C)NC(=O)[C@H](CCN)NC2=O)[C@@H](C)O)NC(=O)[C@H](CCN)NC(=O)[C@H](Cc2ccc(O)cc2)NC1=O)C(C)C [Ex. 327] (I: Ac-V[Dab]Y[Dab]E[dDab]SWSLES-NH2 / II: [Dab]T[Dap][Dab][Dab][dL]L[Dab][Dab]T; lactam I:2-I:11, II:4-II:C; amide I:5-II:N) | <1% | 0.5 µg/mL (≈ 0.207 µM) | 0.0625 µg/mL | 0.0625 µg/mL | 0.125 µg/mL (≈ 0.0517 µM) | 0.125 µg/mL (≈ 0.0517 µM) | 0.0625 µg/mL | 0.125 µg/mL | 0.25 µg/mL (≈ 0.103 µM) | – | – | – | –
CC(=O)N[C@H](C(=O)N[C@H]1CCCNC(=O)[C@@H]([C@H](C)O)NC(=O)[C@H](C(C)C)NC(=O)[C@H](CO)NC(=O)[C@H](Cc2c[nH]c3ccccc23)NC(=O)[C@H](CCO)NC(=O)[C@@H](CCN)NC(=O)[C@H](CCC(=O)N[C@@H](CCN)C(=O)N[C@H](C(=O)N[C@@H](CN)C(=O)N[C@H]2CCNC(=O)[C@H]([C@@H](C)O)NC(=O)[C@H](CCN)NC(=O)[C@H](CCN)NC(=O)[C@H](CC(C)C)NC(=O)[C@@H](CC(C)C)NC(=O)[C@H](CCN)NC2=O)[C@@H](C)O)NC(=O)[C@H](CCN)NC(=O)[C@H](Cc2ccc(O)cc2)NC1=O)C(C)C [Ex. 31] (I: Ac-V[Orn]Y[Dab]E[dDab][hSer]WSV[dT] / II: [Dab]T[Dap][Dab][Dab][dL]L[Dab][Dab]T; lactam I:2-I:C, II:4-II:C; amide I:5-II:N) | <1% | 0.125 µg/mL (≈ 0.0539 µM) | – | – | 0.125 µg/mL (≈ 0.0539 µM) | 0.125 µg/mL (≈ 0.0539 µM) | – | – | 0.5 µg/mL (≈ 0.216 µM) | 0.03125 µg/mL (≈ 0.0135 µM) | 0.03125 µg/mL (≈ 0.0135 µM) | 0.0625 µg/mL (≈ 0.0269 µM) | 0.25 µg/mL (≈ 0.108 µM)
CC(C)C[C@@H]1NC(=O)[C@@H](CC(C)C)NC(=O)[C@H](CCN)NC(=O)[C@@H](NC(=O)[C@H](CN)NC(=O)[C@@H](NC(=O)[C@H](CCN)NC(=O)CC[C@@H]2NC(=O)[C@@H](CCN)NC(=O)[C@H](CCCN)NC(=O)[C@H](CCN)NC(=O)[C@H](Cc3ccc(O)cc3)NC(=O)[C@@H](NC(=O)[C@@H](O)C(C)C)CSSC[C@@H](C(=O)NC(CO)CO)NC(=O)[C@H](C(C)(C)C)NC(=O)[C@H](CO)NC(=O)[C@H](Cc3c[nH]c4ccccc34)NC2=O)[C@@H](C)O)CCNC(=O)[C@H]([C@@H](C)O)NC(=O)[C@H](CCN)NC(=O)[C@H](CCN)NC1=O [Ex. 172] (I: H-[Hiv]CY[Dab][Orn][dDab]EWS[Tle]C-{NHCH(CH2OH)2} / II: [Dab]T[Dap][Dab][Dab][dL]L[Dab][Dab]T; disulfide I:2-I:11; amide I:7-II:N; lactam II:4-II:C) | <1% | 0.5 µg/mL (≈ 0.21 µM) | – | – | 0.125 µg/mL (≈ 0.0524 µM) | 0.25 µg/mL (≈ 0.105 µM) | – | – | 0.25 µg/mL (≈ 0.105 µM) | 0.125 µg/mL (≈ 0.0524 µM) | 0.125 µg/mL (≈ 0.0524 µM) | 0.125 µg/mL (≈ 0.0524 µM) | 0.25 µg/mL (≈ 0.105 µM)
CC(C)C[C@@H]1NC(=O)[C@H](CCN)NC(=O)[C@H](CCN)NC(=O)[C@H](CC(C)C)NC(=O)[C@@H](CC(C)C)NC(=O)[C@H](CCN)NC(=O)[C@@H](NC(=O)[C@@H](CCN)NC(=O)CC[C@H]2NC(=O)[C@H](CCCN)NC(=O)[C@H](CCN)NC(=O)[C@H](Cc3ccc(O)cc3)NC(=O)[C@@H](NC(=O)[C@@H](O)C(C)C)CSSC[C@@H](C(=O)N[C@H](C(N)=O)[C@@H](C)O)NC(=O)[C@H](C(C)(C)C)NC(=O)[C@H](CO)NC(=O)[C@H](Cc3c[nH]c4ccccc34)NC(=O)[C@H]([C@@H](C)O)NC2=O)CCNC1=O [Ex. 165] (I: H-[Hiv]CY[Dab][Orn][dE]TWS[Tle]CT-NH2 / II: [dDab][Dab][Dab][dL]L[Dab][Dab]L; disulfide I:2-I:11; amide I:6-II:N; lactam II:2-II:C) | <1% | 0.5 µg/mL (≈ 0.223 µM) | – | – | 1 µg/mL (≈ 0.447 µM) | 4 µg/mL (≈ 1.79 µM) | – | – | 0.125 µg/mL (≈ 0.0558 µM) | 0.25 µg/mL (≈ 0.112 µM) | 1 µg/mL (≈ 0.447 µM) | 0.25 µg/mL (≈ 0.112 µM) | 0.5 µg/mL (≈ 0.223 µM)
